ChEMBL document CHEMBL1151076, “Discovery of MK-0476, a potent and orally active leukotriene D4 receptor antagonist devoid of peroxisomal enxyme induction” (Bioorg Med Chem Lett, 1995)

What was measured:
[1] = molecular target: T1, Cysteinyl leukotriene receptor 1 (Cavia porcellus, UniProt Q2NNR5); test: Concentration required for inhibition of binding of [3H]LTD4 to guinea pig lung membranes; assay type: tissue-based, Membrane
T1 sequence (Q2NNR5 whole entry): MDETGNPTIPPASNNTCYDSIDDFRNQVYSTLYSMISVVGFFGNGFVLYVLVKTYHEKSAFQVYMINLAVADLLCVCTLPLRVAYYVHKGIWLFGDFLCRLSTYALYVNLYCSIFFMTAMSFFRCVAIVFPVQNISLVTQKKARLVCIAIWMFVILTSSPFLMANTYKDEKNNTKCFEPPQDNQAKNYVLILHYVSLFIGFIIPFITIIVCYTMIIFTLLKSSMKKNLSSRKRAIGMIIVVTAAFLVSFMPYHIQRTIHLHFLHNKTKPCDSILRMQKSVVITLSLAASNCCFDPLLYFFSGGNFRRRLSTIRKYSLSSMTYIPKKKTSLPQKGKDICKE

Mus musculus [2] = test: Peroxisomal enzyme induction in mice after administration of 400 mg/kg perorally for 4 days was determined.; assay type: functional; details: route oral
Mus musculus [3] = test: Liver weight increase in mice after administration of 400 mg/kg perorally for 4 days was determined.; assay type: functional; details: route oral
Mus musculus [4] = test: Peroxisomal enzyme induction in mice after administration of 200 mg/kg perorally for 4 days was determined.; assay type: functional; details: route oral
Mus musculus [5] = test: Liver weight increase in mice after administration of 200 mg/kg perorally for 4 days was determined.; assay type: functional; details: route oral
[6] = molecular target: T1, Cysteinyl leukotriene receptor 1; test: Concentration required for inhibition of binding of [3H]-LTD4 to guinea pig lung membranes (different expt); assay type: tissue-based, Membrane
[7] = Bioavailability in squirrel monkey; assay type: ADME, organism-based; details: saimiri, in vivo; read-out: Bioavailabiility
[8] = Terminal half-life was determined; assay type: ADME
Cavia porcellus = species on record: Cavia porcellus; test: Antagonistic activity of leukotriene D4-induced contractions of non-tonal guinea-pig trachea; assay type: functional, organism-based; details: read-out: pA2 (converted)
[9] = Reduction in the decrease in dynamic compliance after 4 hr of administration of 0.01 mg/kg to squirrel monkey; assay type: functional
[10] = Reduction of the increase in pulmonary resistance after 4 hr of administration of 0.01 mg/kg to squirrel monkey; assay type: functional

With `CC(C)(CC(=O)O)S[C@H](CCc1ccccc1C(C)(C)O)c1cccc(/C=C/c2ccc3ccc(Cl)cc3n2)c1` the IC50 [1] was 0.68 nM, the PEI (Mus musculus [2]) was -10% and the LWI (Mus musculus [3]) was 3%.
`CC(CS[C@H](CCc1ccccc1C(C)(C)O)c1cccc(/C=C/c2ccc3ccc(Cl)cc3n2)c1)CC(=O)O` (some centres not stated) showed an IC50 [1] of 0.43 nM, a PEI (Mus musculus [2]) of 18% and an LWI (Mus musculus [3]) of 10%.
`C[C@H](S[C@H](CCc1ccccc1C(C)(C)O)c1cccc(/C=C/c2ccc3ccc(Cl)cc3n2)c1)[C@@H](C)C(=O)O` showed an IC50 [1] of 2.3 nM, a PEI (Mus musculus [2]) of 393% and an LWI (Mus musculus [3]) of 32%.
Work on `CC[C@H](CS[C@H](CCc1ccccc1C(C)(C)O)c1cccc(/C=C/c2ccc3ccc(Cl)cc3n2)c1)C(=O)O` yielded an IC50 [1] of 0.2 nM, a PEI (Mus musculus [4]) of 608% and an LWI (Mus musculus [5]) of 63%.
Compound `CN(C)C(=O)CCS[C@H](SCCC(=O)[O-])c1cccc(/C=C/c2ccc3ccc(Cl)cc3n2)c1.[Na+]` has an IC50 [1] of 3.1 nM, a PEI (Mus musculus [2]) of 65% and an LWI (Mus musculus [3]) of 0%.
For `CN(C)C(=O)CCSC(SCCC(=O)[O-])c1cccc(/C=C/c2ccc3ccc(Cl)cc3n2)c1.[Na+]` (configuration not stated), the IC50 [1] was 1.5 nM, the IC50 [6] was 2.5 nM and the PEI (Mus musculus [2]) was 318%. The LWI (Mus musculus [3]) was 38%.
Compound `C[C@H](C(=O)O)[C@@H](C)S[C@H](CCc1ccccc1C(C)(C)O)c1cccc(/C=C/c2ccc3ccc(Cl)cc3n2)c1` has an IC50 [1] of 0.3 nM, a PEI (Mus musculus [2]) of 91% and an LWI (Mus musculus [3]) of 10%.
Compound `C[C@H](CC(=O)O)S[C@H](CCc1ccccc1C(C)(C)O)c1cccc(/C=C/c2ccc3ccc(Cl)cc3n2)c1` has an IC50 [1] of 0.6 nM, a PEI (Mus musculus [2]) of 109% and an LWI (Mus musculus [3]) of 12%.
Work on `CCC(CC(=O)O)S[C@H](CCc1ccccc1C(C)(C)O)c1cccc(/C=C/c2ccc3ccc(Cl)cc3n2)c1` (some centres not stated) yielded an IC50 [1] of 0.58 nM, a PEI (Mus musculus [2]) of 188% and an LWI (Mus musculus [3]) of 9%.
Compound `C[C@@H](CC(=O)O)S[C@H](CCc1ccccc1C(C)(C)O)c1cccc(/C=C/c2ccc3ccc(Cl)cc3n2)c1` has an IC50 [1] of 0.33 nM, a PEI (Mus musculus [2]) of 24% and an LWI (Mus musculus [3]) of 11%.
In the case of `CC(S[C@H](CCc1ccccc1C(C)(C)O)c1cccc(/C=C/c2ccc3ccc(Cl)cc3n2)c1)C(C)C(=O)O` (some centres not stated), the IC50 [1] is reported as 0.44 nM, the PEI (Mus musculus [2]) is reported as 673% and the LWI (Mus musculus [3]) is reported as 27%.
In the case of `CC(CC(=O)O)S[C@H](CCc1ccccc1C(C)(C)O)c1cccc(/C=C/c2ccc3ccc(Cl)cc3n2)c1` (some centres not stated), the IC50 [1] is reported as 0.79 nM, the PEI (Mus musculus [4]) is reported as 22% and the LWI (Mus musculus [5]) is reported as 5%.
`CC(C)(CS[C@H](CCc1ccccc1C(C)(C)O)c1cccc(/C=C/c2ccc3ccc(Cl)cc3n2)c1)CC(=O)O` gave an IC50 [1] of 0.3 nM, a PEI (Mus musculus [2]) of 25% and an LWI (Mus musculus [3]) of 2%.
For `CC(C)(O)c1ccccc1CC[C@@H](SCC1(CC(=O)O)CC1)c1cccc(/C=C/c2ccc3ccc(Cl)cc3n2)c1` [MONTELUKAST], the bioavailability [7] was 42%, the half-life [8] was 240 min and the Kb (Cavia porcellus) was 0.501 nM. It also gave a PEI (Mus musculus [2]) of 16%, an LWI (Mus musculus [3]) of 0% and a Reduction [9] of 78%. For the same compound, the Reduction [10] was 56%.
